# Test results published in PMC2697320, “Identification of the high affinity binding site in the Streptococcus intermedius toxin intermedilysin for its membrane receptor, the human complement regulator CD59” (Molecular Immunology, 2009).
# Where no end group is shown, it is not given here.
# Columns and labels:
# [1] = target: T1, CD59 (Homo sapiens, UniProt P13987); experiment: biochemical; format: binding; conditions: SPR steady state, immobilised CD59, 25 °C; read-out: KD, printed in Fig. 3C
# T1 construct: Recombinant soluble CD59 comprising amino acids 1–76 with an 11 amino acid Ser/Gly linker; made in house
# T1 sequence (P13987 26-101): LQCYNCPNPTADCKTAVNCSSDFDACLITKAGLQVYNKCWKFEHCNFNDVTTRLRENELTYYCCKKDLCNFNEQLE
# [2] = test system: human erythrocytes; experiment: Hemolytic assay for complement (C) activity, antibody-sensitised human erythrocytes; format: cell-based; conditions: at the dilutions used in these assays
# Description: Hemolytic assays for C activity were performed using human erythrocytes sensitised with an in-house rabbit polyclonal antiserum against human CD55 as described ([Cole et al., 2006]). Sensitised erythrocytes (2% in CFD; 50 μl/well) were incubated for 30 min with various dilutions of human serum in CFD in the absence or presence of test peptides or blocking anti-CD59 antibodies. Plates were centrifuged and percent lysis calculated as above. Statistical analyses were carried out using unpaired Student's t-tests.
sequence,measurement,setting,value
GLAWEPWRLIYSKNDLPLVPC [ILY peptide],Kd,[1],4.92 µM
same,lysis by peptide itself above background,[2],neither “sense” nor jumbled peptide caused any lysis above background
